From US20020026052A1, “3-cyanoquinolines, 3-cyano-1,6-naphthyridines, and 3-cyano-1,7-naphthyridines as protein kinase inhibitors” (American Home Products Corporation, priority 2000, published 2002)
pIC50: −log10 of the molar value. “And” between values parts separate entries of the source, which are not always exact repeats. Equal entries are not always repeated.

Assays:
[1] = system: human adenocarcinoma cell line CaCo-2; experiment: Cell Based Screen for Inhibitors of Raf Kinase, CaCo-2; conditions: four days incubation, SRB
Procedure: (§1) Cell Based Screen for Inhibitors of Raf Kinase.
(§2) Cell Lines: Human adenocarcinoma cell line LoVo which is known to be growth inhibited by low nM concentrations of a reference standard inhibitor of Ras and human adenocarcinoma cell line CaCo-2, which is known to be growth resistant to the same reference compound. Cell Media: RPMI 1640 with 10% Fetal Bovine Serum supplemented with L-glutamine and Pennicilin/Streptomycin. Compounds: Supplied usually as a 10 mM stock in 100% DMSO. Normal Saline: 150 mM NaCl Trichloroacetic Acid (TCA): 50% (w/v) in water Sulforhodamine B (SRB): 0.4% (w/v) in 1% Acetic Acid Tris Base: 10 mM in water
(§3) Cells are plated at 2000 cells per well for cell line LoVo and 1500 cells for cell line CaCo-2 in 96 well plates. Cells are plated in media (200 μl) and allowed to adhere overnight at 37 ° C. At 24 hours post plating, compounds are added directly at a volume of 0.5 μl. For the qualitative screen (compounds screened at 25 μM) compound is added directly to cells. For the quantitative screen, compound is first diluted in DMSO to generate concentrations of compound or reference standard of: 1, 5, 10 and 25 μM. It is advisable to make the dilutions in an identical 96 well plate so that compounds may be added using a multichannel micropipettor set at 0.5 μl. The cells are then incubated for four days after which the media is removed using a 12 well manifold by first tipping the plate forward at a 45 degree angle and then inserting the manifold in an upright orientation to prevent the ti
(§4) of the manifold from disturbing cells at the bottom of the plate. 200 μl of normal saline is then added to each well using an 8 well multichannel pipettor, followed by the careful addition of 50 μl of 50% TCA. The plates are then incubated for 2 hours at 4 ° C, after which the supernatant is removed using the same technique as above and the plated washed twice with 200 ul water. The plates are then air dried and 50 μl of SRB stock solution is carefully added so that the entire bottom of each well is covered. This again may be used using an 8 well multichannel pipettor. The SRB is incubated with fixed cells for 15 minutes at room temperature after which the SRB is removed with the manifold as described above and the plates washed twice with 350 μl of 1% acetic acid per well each time.The plates are then air dried after which the bound SRB is released from protein by the addition of 200 µl of Tris base. Resolubilizing the SRB is aided by placing the plates on a rotator for 15-30 minutes. The absorbance of each well is determined at 550 or 562 nm using a microtiter plate reader.
(§5) Each compound or dilution thereof is performed in triplicate. Outliers are identified by visual inspection of the data. Each plate should have a “0” control (vehicle only). […] Quantitative Assay: A standard curve is constructed by plotting the concentration of compound against the average absorbance calculated at that concentration. A curve is plotted and the concentration at which the curve passes through the 50% the absorbance mark seen in the “0” control well is the IC50 calculated for that compound. Multiple entries for a given compound indicate that it was tested multiple times.

[2] = system: Human adenocarcinoma cell line LoVo; experiment: Cell Based Screen for Inhibitors of Raf Kinase, LoVo; conditions: four days incubation, SRB
Procedure: as §1, §2, §3, §4, §5

Raf1 (c-Raf) = biological target: T1, Raf1 (c-Raf) (Homo sapiens, UniProt P04049); experiment: Raf1 Kinase Cascade Assay; assay type: biochemical
T1 construct: Sf9 insect cell lysate containing full length 6 his-tagged recombinant human c—Raf; 6His; host or cells: Sf9 insect cells (c-Raf, used as lysate); E. coli (GST-MEK1, GST-MAPK)
Procedure: Raf1 Kinase Cascade Assay Procedure
(Specific Activity: ˜200 U/ml). Human Non-active Mek-1—GST and human GST-MAP kinase (recombinant proteins produced in E. coli).
Stock Solutions Raf Assay:
Assay Dilution Buffer (ADB): 2 OmM MOPS, pH 7.2, 25 mM B-glycerol phosphate, mM EGTA, 1 mM sodium orthovanadate, 1 mM dithiothreitol. Magnesium/ATP Cocktail: 500 AM cold ATP and 75 mM magnesium chloride in ADB.
Active Kinase: Human Active c—Raf: Use at 0.4 U per assay point. Non-active GST-MEK1: Use at 0.1, ug per assay point. Non-active GST-p42 MAP Kinase: Use at 1.0 tg per assay point.
TBST—Tris (50 mM, pH 7.5)-1H-, NaCl (150 mM), Tween-20 (0.05%) Superblock (Pierce) Anti—GST Ab (Pharmacia) Anti-Phospho MAPK (Sigma) Anti-Mouse Ab/Europium conjugate (Wallac)
Assay Procedure: First Stage: c—Raf Dependent Activation of GST-MEK and GST-MAPK Add […] of ADB per assay (i.e. per well of a 96 well plate) Add 10 ml of 0.5 mM cold ATP and 75 mM magnesium chloride in ADB. Add 2 ml of c—Raf (0.4 U/assay), in conjunction with 1.6 ml non-active MEKI (0.4 mg/assay). Add 4 ml of non-active GST-p42 MAP Kinase (1.0 mg/assay). Incubate for 60 minutes at 30° C. in a shaking incubator. Transfer this mixture to an anti—GST Ab coated 96 well plate (Nunc Immunosorb plates coated o/n with a—GST, then blocked with Pierce Superblock). Incubate for 60 minutes at 30° C. in a shaking incubator Wash 3×with TBST, add Anti-Phospho MAPK (Sigma) (1:3000)-1H-Incubate for 60 minutes at 30° C. in a shaking incubator Wash 3×with TBST, add Anti-Mouse Ab/Europium conjugate (Wallac) (1:500)-1H-Incubate for 60 minutes at 30° C. in a shaking incubator Wash 3×with TBST, Read plates in Wallac Victor model Plate Reader. Collect data analyze in Excel for single point and IC50 determinations.
IC50 determinations - done on compounds from single point assays with >80% inhibition. Typically Raf-1 assay is run at compound concentrations from 10 μM to 30 nM in half log dilutions. (% inhibition is determined for each compound concentration).

Row | pIC50 ([1]; Homo sapiens, Caco-2, 96 h) | pIC50 ([2]; Homo sapiens, LoVo, 96 h) | melting point | pIC50 (Raf1 (c-Raf)) | pIC50 [1] | pIC50 [2] | Compound
1 | < 5.00 | 7.52 | > 250 °C | 9.00 | – | – | Cn1ccnc1Sc1ccc(Nc2c(C#N)cnc3cc(-c4cnc(N5CCOCC5)nc4)ccc23)cc1Cl [Example 191, 4-{3-Chloro-4-[(1-methyl-1H-imidazol-2-yl)sulfanyl]anilino}-7-[2-(4-morpholinyl)-5-pyrimidinyl]-3-quinolinecarbonitrile]
2 | < 6.00 | 7.48 | 140 to 142 °C | 7.80 | – | – | Cn1ccnc1Sc1ccc(Nc2c(C#N)cnc3cc(-c4ccc(CN5CCNCC5)cc4)ccc23)cc1Cl [Example 97, 4-({3-chloro-4-[(1-methylimidazol-2-yl)sulfanyl]phenyl}amino)-7-[4-(1-piperazinylmethyl)phenyl]-3-quinolinecarbonitrile]
3 | – | – | – | 8.43 | 6.03 | 8.25 | 4-({3-Chloro-4-[(1-methyl-1H-imidazol-2-yl) sulfanyl]phenyl }amino)-7-[5-(1-pyridinyl]-3-quinolinecarbonitrile [Example 180]
4 | < 6.00 | 7.96 | 158 to 160 °C | 8.60 and 8.74 | – | – | Cn1ccnc1Sc1ccc(Nc2c(C#N)cnc3cc(-c4ccc(CN5CCCCC5)cc4)ccc23)cc1Cl [Example 136, 4-{3-Chloro-4-[(1-methyl-IH-imidazol-2-yl)sulfanyl]anilino}-7-[4-(1-piperidinylmethyl)phenyl]-3-quinolinecarbonitrile]
5 | – | – | 225 to 227 °C | – | – | 8.05 | Cn1ccnc1Sc1ccc(Nc2c(C#N)cnc3cc(-c4ccc(CN5CCOCC5)cn4)ccc23)cc1Cl [Example 187, 4-{3-Chloro-4-[(1-methyl-1H-inidazol-2-yl)sulfanyl]anilino}-7-[5-(4-morpholinylmethyl)-2-pyridinyl]-3-quinolinecarbonitrile]
6 | – | – | – | 8.05 and 7.92 | 6.00 | 8.25 | 4-{3-Chloro-4-[(1-methyl-1H-imidazol-2-yl) sulfanyl]anilino }-7-{5-[(4-ethyl-1-piperazinyl) methyl]-2-furyl }-3-quinolinecarbonitrile [Example 156]
7 | – | – | – | 8.25 | 6.09 | 8.21 | Cn1ccnc1Sc1ccc(Nc2c(C#N)cnc3cc(-c4ccc(CN5CCOCC5)cc4)ccc23)cc1Cl [Example 138, 4-({3-Chloro-4-[(1-methyl-lH-imidazol-2-yl)sulfanyl]phenyl}amino)-7-{4-[(4-morpholinyl)methyl]phenyl}-3-quinolinecarbonitrile]
8 | – | – | – | 8.22 | < 6.00 | 8.28 | Cn1ccnc1Sc1ccc(Nc2c(C#N)cnc3cc(-c4ccc(N5CCCCC5)nc4)ccc23)cc1Cl [Example 211, 4-({3-Chloro-4-[(1-methyl-iH-imidazol-2-yl)sulfanyl]phenyl}amino)-7-[6-(1-piperidinyl)-3-pyridinyl]-3-quinolinecarbonitrile]
9 | – | 8.22 | 110 to 113 °C | 8.22 | – | – | Cn1ccnc1Sc1ccc(Nc2c(C#N)cnc3cc(-c4csc(CN5CCOCC5)c4)ccc23)cc1Cl [Example 33, 4-{3-chloro-4-[(1-methyl-1H-imidazol-2-yl)sulfanyl]anilino}-7-[5-(4-morpholinylmethyl)-3-thienyl]-3-quinolinecarbonitrile]
